Measurements published in patent US7847058B2, “Method of modulating cell survival, differentiation and/or synaptic plasticity” (priority 2003, dated 2010).
Residue numbers refer to the chain shown, from its start. Names and notes keep the numbering of the source. “Also recorded” adds a separate entry of the source.

How the values were obtained:
[1] = test system: cerebellar granule neurons (CGN); test: Neurite outgrowth of CGN in co-culture with fibroblasts with (LBN) or without (LVN) NCAM expression; assay type: cell-based, rat; details: for NCAM-dependent neurite outgrowth of CGN in co-cultures of CGN and LBN-cells: fibroblasts with NCAM expression (LBN); for NCAM-independent neurite outgrowth of CGN in both cultures: single-neuron primary culture 24 h and co-culture with fibroblasts
Description: (§1) Cerebellar granule neurons (CGN) were prepared from Wistar rat pups of postnatal day 3. Cerebellar tissue was dissected in modified Krebs-Ringer solution kept on ice, and treated as described for the hippocampal neurons above. All cell cultures were incubated at 37° C. in a humidified atmosphere containing 5% CO2. All animals were handled in accordance with the national guidelines for animal welfare. Primary cultures of CGN were plated at a density of 100,000 cells/cm^2 on poly-L-lysine coated 8-well permanox slides in Neurobasal-A medium (Gibco, BRL) supplemented with 2% (v/v) B27, 0.5% (v/v) glutamax, 100 U/ml penicillin, 100 μg/ml streptomycin and KCl, making the final concentration of KCl in the medium 40 mM. 24 hours after plating, cytosine-β-D-arabinofuranoside (Ara-C; Sigma-Aldrich) was added to a final concentration of 10 μM to avoid proliferation of glial cells, after which the neurons were allowed to differentiate for further six days at 37° C.
(§2) Ig3 wt, Ig3mut1, and Ig3mut2 were tested at a concentration of 500 μg ml^−1.
(§3) To evaluate the length of neurites of CGN, the neurons were fixed after 24 hours in culture with 4% (v/v) formaldehyde for 20 minutes and thereafter immunostained using primary rabbit antibodies against GAP-43 and Alexa Fluor secondary goat anti-rabbit antibodies. Images of at least 200 neurons for each group in each individual experiment were obtained systematically by using computer assisted fluorescence microscopy
(§4) The total neurite length per cell was analyzed using the software ProcessLength (Rønn et al., 2000). Five independent experiments with the Ig3 module, its mutants, and the individual peptides were performed. In each experiment neurites from 200-300 cells were analyzed. In order to compare results of individual experiments and due to the inherently high variability of cell experiments, the data were normalized setting the difference between the average neurite length of PC12-E2 cells grown on NCAM-140-transfected and vector-transfected fibroblasts to 100%. Statistical evaluations were performed using a two-sided Student's t-test.

[2] = test system: cerebellar granule neurons (CGN); test: Neurite outgrowth of CGN grown as single neurons in primary culture; assay type: cell-based, rat; details: 24 h, different concentrations of the peptide in growth media
Description: as §1, §3, §4

[3] = test system: cerebellar granule neurons (CGN); test: Neurite outgrowth of CGN in co-culture with fibroblasts with (LBN) or without (LVN) NCAM expression; assay type: cell-based, rat; details: co-cultures of PC12-E2 or CGN cells with fibroblasts expressing NCAM; cell type not specified
[4] = test system: NCAM-expressing PC12-E2 cells; test: Neurite outgrowth of PC12-E2 cells grown on a confluent monolayer of NCAM-140- or vector-transfected L929 fibroblasts; assay type: cell-based; details: co-culture 24 h; for NCAM-induced neurite outgrowth of PC12-E2 cells grown on NCAM-140-transfected (LBN) fibroblasts: Ig3 wt, Ig3mut1, Ig3mut2 at 500 μg ml^−1
Description: The NCAM-expressing pheochromocytoma PC12-E2 cell line (Wu and Bradshaw, 1995) was a gift from Dr. Klaus Seedorf, Hagedorn Research Institute, Denmark. The cells were grown in Dulbecco's Modified Eagle's Medium (DMEM) supplemented with 5% v/v fetal calf serum (FCS) and 10% v/v horse serum (HS), 100 U ml^−1 penicillin, 100 μg ml^−1 streptomycin (all from Gibco BRL) at 37° C. in a humidified atmosphere containing 5% CO2.
The fibroblastoid mouse cell line, L929 (European Cell Culture Collection), was stably transfected with the eukaryotic expression vector pHβ-Apr-1-neo (Gunning et al., 1987) containing a full-length cDNA encoding human 140 kDa NCAM-B or the vector alone. […] The cells were routinely grown at 37° C., 5% CO2 in DMEM supplemented with 10% v/v FCS, 100 U ml^−1 penicillin, and 100 μg ml^−1 streptomycin. For analysis of neurite outgrowth, PC12-E2 cells (8,000 cells per well) were seeded on top of a confluent monolayer of transfected fibroblastoid L929 cells in four-well LabTek Tissue Culture Chamber Slides (NUNC). The cells were grown for 24 h in DMEM supplemented with 1% v/v HS, before analysis.
as §2
To evaluate the length of processes of PC12-E2 cells, the co-cultures were fixed in 4% w/v paraformaldehyde for 25 min. After washing in PBS, cells were blocked with 10% v/v goat serum (DAKO) for 30 min and subsequently incubated for 1 h at room temperature with a mouse monoclonal anti-Thy-1 antibody (Caltag Laboratories) (1:100 in PBS containing 10% v/v goat serum). After washing, cells were incubated for 1 h at room temperature with Alexa-Fluor 568™ goat anti-mouse IgG (Molecular Probes) (1:1000 in PBS containing 10% goat serum). All washes were performed for 10 min in PBS, and repeated three times.
as §4

[5] = test system: NCAM-mediated cell aggregation; details: Soroka et al., 2002; cited from earlier work
[6] = Dynamic light scattering (DLS) of recombinant proteins in solution; assay type: physicochemical; details: deglycosylated protein, 4 mg ml^−1, PBS pH 7.4, 18° C.
Description: Measurements were performed using a DynaPro-MS/X instrument (Protein Solutions) at 18° C. The deglycosylated preparations of Ig1-2-3 (4 mg ml^−1), Ig1-2-3mut (4 mg ml^−1) and Ig3 (10 mg ml^−1) in PBS pH 7.4 were used to determine the molecular weight of the recombinant proteins in solution.

Molecule: AFSPNGEKLSPNQ (H-AFSPNGEKLSPNQ-NH2) [P1-CD, represents the Ig1-to-Ig3 contact]
- NCAM-dependent neurite outgrowth of CGN in co-cultures of CGN and LBN-cells [1]: inhibits; also recorded: capable modulating
- NCAM-independent neurite outgrowth of CGN in both cultures [1]: does not affect
- neurite outgrowth (differentiation) of single CGN in primary culture [2]: did not stimulate

Molecule: DVRRGIKKTD (H-DVRRGIKKTD-NH2) [P2-CD, represents the Ig2-to-Ig3 contact, Ig2 module]
- NCAM-stimulated neurite outgrowth in co-cultures [3]: did not affect
- neurite outgrowth (differentiation) of single CGN in primary culture [2]: very capable stimulators

Molecule: GEISVGESKFFL (H-GEISVGESKFFL-NH2) [P1-B, covers the B β-strand of Ig1, represents the Ig1-to-Ig2 contact]
- NCAM-induced neurite outgrowth of PC12-E2 cells grown on NCAM-140-transfected (LBN) fibroblasts [4]: inhibitory effects comparable to the effect of Ig3 wt; also recorded: inhibited

Molecule: GRILARGEINFK (rat NCAM Ig2 fragment amino acid residues 172-182) [P2 peptide]
- effect on cell aggregation [5]: inhibitory effect

Molecule: KHIFSDDSSELTIRNVDKNDE (H-KHIFSDDSSELTIRNVDKNDE-NH2) [P3-DE, covers D and E β-strands and E-F loop of the Ig3 module]
- NCAM-induced neurite outgrowth of PC12-E2 cells grown on NCAM-140-transfected (LBN) fibroblasts [4]: inhibitory effects comparable to the effect of Ig3 wt; also recorded: inhibited

Molecule: QEFKEGEDAVIV (H-QEFKEGEDAVIV-NH2) [P2-A′B, represents the Ig2-to-Ig2 contact]
- NCAM-dependent neurite outgrowth of CGN in co-cultures of CGN and LBN-cells [1]: inhibits; also recorded: capable modulating
- NCAM-independent neurite outgrowth of CGN in both cultures [1]: does not affect
- neurite outgrowth (differentiation) of single CGN in primary culture [2]: did not stimulate

Molecule: QIRGIKKTD (H-QIRGIKKTD-NH2) [P2-EF, represents the Ig2-to-Ig3 contact, Ig2 module]
- NCAM-stimulated neurite outgrowth in co-cultures [3]: did not affect
- neurite outgrowth (differentiation) of single CGN in primary culture [2]: very capable stimulators

Molecule: SIHLKVFAK (H-SIHLKVFAK-NH2) [P3-G, C-terminal part of the G β-strand of Ig3]
- NCAM-stimulated neurite outgrowth in co-cultures [3]: did not affect
- NCAM-induced neurite outgrowth of PC12-E2 cells grown on NCAM-140-transfected (LBN) fibroblasts [4]: inhibitory effects comparable to the effect of Ig3 wt; also recorded: inhibited
- neurite outgrowth (differentiation) of single CGN in primary culture [2]: very capable stimulators

Molecule: TLVADADGFPEP (H-TLVADADGFPEP-NH2) [P3-B, control peptide covering the B β-strand and B-C loop of the Ig3 module, reference compound]
- NCAM-induced neurite outgrowth of PC12-E2 cells grown on NCAM-140-transfected (LBN) fibroblasts [4]: not active

B1: Ig3: recombinant Ig3 module of rat NCAM, residues 191-289, produced in P. pastoris (protein)
chain: EAEAYGRILARGEINFKDIQVIVNVPPTVQARQSIVNATANLGQSVTLVCDADGFPEPTMSWTKDGEPIENEEEDDEKHIFSDDSSELTIRNVDKNDEAEYVCI
- NCAM-induced neurite outgrowth of PC12-E2 cells grown on NCAM-140-transfected (LBN) fibroblasts [4]: clearly inhibits
- NCAM-induced neurite outgrowth of PC12-E2 cells grown on NCAM-140-transfected (LBN) fibroblasts ([4]; listed as Ig3 wt): inhibitory effect
- neurite outgrowth of PC12-E2 cells grown on vector-transfected (LVN) fibroblasts ([4]; NCAM-negative fibroblasts): does not affect

B2: Ig3mut1: Ig3 mutant with substitutions R198A, D249G, E287A (E253A) (protein)
chain: B1 chain with R32A, D83G, E87A
- NCAM-induced neurite outgrowth of PC12-E2 cells grown on NCAM-140-transfected (LBN) fibroblasts [4]: inactive

B3: Ig1-2-3: recombinant Ig1-2-3 fragment of rat NCAM, residues 1-289 (protein)
chain: RVLQVDIVPSQGEISVGESKFFLCQVAGDAKDKDISWFSPNGEKLSPNQQRISVVWNDDDSSTLTIYNANIDDAGIYKCVVTAEDGTQSEATVNVKIFQKLMFKNAPTPQEFKEGEDAVIVCDVVSSLPPTIIWKHKGRDVILKKDVRFIVLSNNYLQIRGIKKTDEGTYRCEGRILARGEINFKDIQVIVNVPPTVQARQSIVNATANLGQSVTLVCDADGFPEPTMSWTKDGEPIENEEEDDEKHIFSDDSSELTIRNVDKNDEAEYVCIAENKAGEQDASIHLKVFAK
modifications: rat NCAM fragment amino acid residues 20-308 and cloning artifacts
- molecular weight in solution by DLS (oligomeric state) [6]: ~78 kDa

B4: Ig1-2-3mut: Ig1-2-3 mutant containing the substitutions E11A, E16A, and K18A (protein)
chain: B3 chain with E13A, E18A, K20A
- molecular weight in solution by DLS (oligomeric state) [6]: ~34 kDa
